# Experimental data: US9018188B2, “MicroRNA inhibitors” (Ottawa Hospital Research Institute, priority 2011, dated 2015)
# Test system: miR-133
# Test: miR-133 biosensor luciferase assay in C2C12 myoblast clones
# Assay type: cell-based
# Details: C2C12 clone A10, 48 hours in growth media; TGF-β 10 ng/mL, Insulin 850 nM, IBMX 0.5 mM, AICAR 0.5 mM, Dexamethasone 1
# Source text: The design of the miR-133 biosensor is based on the principle that recognition of microRNA target sites in 3′UTR by microRNA/RISC leads to the inhibition of the translation of the target mRNAs. An artificial 3′UTR containing optimized miR-133 target sites in tandem was designed and cloned downstream of the open reading frames of firefly luciferases and GFP, which in together function as miR-133 biosensor (FIG. 9A), in a lentiviral vector. C2C12 myoblast clones were infected with lentiviruses carrying the miR-133 biosensor and selected for stable expression of the reporter construct. Activity of potential modulators or miR-133 is tested and read as a reverse correlation between miR-133 functionality and luciferase/GFP intensities. The construct can be used for live-cell imaging (in vitro and in vivo) and allows real-time detection.
# Two miR-133 biosensor plasmids were constructed—pCMV-FireflyLuc_miR133TS_EF1_Puro and pCMV-RenillaLuc—133TS_EF1_Puro. In the pCMV-FireflyLuc—133TS_EF1_Puro plasmid, five tandem miR-133 target sites (miR133TS; 5′-[…]-3′, SEQ ID NO:22) was cloned downstream of a firefly luciferase ORF (with a stop codon), which is driven by a CMV promoter. These miR-133 target sites in whole serve as an artificial 3′ UTR of firefly luciferase transcript. The “GGACCAAA” sequence in the miR-133 target sites is complementary to the nucleotide positions 1-8 in miR-133a and miR-133b. The “TAGCTGGTTG” sequence in the miR-133 target sites is complementary to the nucleotide positions 13-22 in miR-133a and miR-133b. The remaining sequence “CCA” sequence in the middle will not anneal to the miR-133a or miR-133b, which will form a “bulge” structure when miR-133a/b anneal to the RNA transcript of miR-133 target sites. This fireflyLuc_miR133TS cassette was further cloned into a lentivirus backbone. In the pCMV-RenillaLuc—133TS_EF1_Puro plasmid, the firefly luciferase ORF was replaced by a renilla luciferase ORF. pCMV-FireflyLuc_miR133TS_EF1_Puro and pCMV-RenillaLuc—133TS_EF1_Puro plasmids were used to generate lentivirus particles in 293T cells, which were used to infect C2C12 myoblasts. Infected C2C12 myoblasts were selected by Puromycin (2 mg/L) and clonally expanded. C2C12 clones, C11 and C3, were used in subsequent experiments.
# In one experiment, a C2C12 clone C11 (25,000 cells per well on 24-well plates), was transfected with 0.5 nM and 5 nM miR-133 mimetics (Life Technologies/Ambion), which can be processed into mature miR-133 in cells. […] Both experiments were performed with 6 replicates and Z-scores above 0.5 were achieved.
# In one experiment, a C2C12 clone (A10; 25,000 cells per well in 24-well plates) was treated with drugs and biologics for 48 hours in growth media. […]
row,Compound,effect on miR-133 by luciferase assays
1,"NC(=O)c1ncn([C@@H]2O[C@H](CO)[C@@H](O)[C@H]2O)c1N [AICAR, 5′ amino-1-βD-ribofuranosyl-imidazole-4-carboxamide, reference compound]",enhancers of miR-133
2,"CC(C)Cn1c(=O)n(C)c(=O)c2[nH]cnc21 [IBMX, 3-isobutyl-1-methylxanthine, reference compound]",enhancers of miR-133
3,Insulin,inhibitors of miR-133
4,TGF-β,inhibitors of miR-133
